Measured values as given in patent US11897862B2 (Gilead Sciences, Inc., priority 2022, dated 2024).
Read-outs that look alike come from different tables or passages of the source.

Legend:
Assay type in all cases: cell-based
[1] = biological target: T1, IKZF1 (Homo sapiens, UniProt Q13422+Q96SW2); test: HEK293 HiBiT in vitro degradation of IKZF1; details: for Dmax: HEK293, HEK293 HiBiT, maximum degradation at the highest concentration tested; for DC50: HEK293 HiBiT, 18-24 hr incubation, normalized to DMSO control, read-out: IKZF1 EC50
T1 construct: expressed in transfected cells
T1 sequence (Q13422 whole entry): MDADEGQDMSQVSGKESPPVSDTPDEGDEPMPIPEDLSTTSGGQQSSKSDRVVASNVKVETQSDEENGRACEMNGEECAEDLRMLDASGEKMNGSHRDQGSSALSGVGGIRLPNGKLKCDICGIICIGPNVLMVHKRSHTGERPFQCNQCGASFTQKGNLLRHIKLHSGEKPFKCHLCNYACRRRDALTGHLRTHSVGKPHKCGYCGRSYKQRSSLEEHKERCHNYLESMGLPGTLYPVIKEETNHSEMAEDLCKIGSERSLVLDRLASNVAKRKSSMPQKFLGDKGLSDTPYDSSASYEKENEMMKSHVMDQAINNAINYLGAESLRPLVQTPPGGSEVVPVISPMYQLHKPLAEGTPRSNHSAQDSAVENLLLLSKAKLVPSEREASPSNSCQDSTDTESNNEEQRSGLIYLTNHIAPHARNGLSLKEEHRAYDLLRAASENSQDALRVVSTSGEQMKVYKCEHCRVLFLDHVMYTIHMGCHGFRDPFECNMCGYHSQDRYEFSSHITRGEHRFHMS
T1 sequence (Q96SW2 whole entry): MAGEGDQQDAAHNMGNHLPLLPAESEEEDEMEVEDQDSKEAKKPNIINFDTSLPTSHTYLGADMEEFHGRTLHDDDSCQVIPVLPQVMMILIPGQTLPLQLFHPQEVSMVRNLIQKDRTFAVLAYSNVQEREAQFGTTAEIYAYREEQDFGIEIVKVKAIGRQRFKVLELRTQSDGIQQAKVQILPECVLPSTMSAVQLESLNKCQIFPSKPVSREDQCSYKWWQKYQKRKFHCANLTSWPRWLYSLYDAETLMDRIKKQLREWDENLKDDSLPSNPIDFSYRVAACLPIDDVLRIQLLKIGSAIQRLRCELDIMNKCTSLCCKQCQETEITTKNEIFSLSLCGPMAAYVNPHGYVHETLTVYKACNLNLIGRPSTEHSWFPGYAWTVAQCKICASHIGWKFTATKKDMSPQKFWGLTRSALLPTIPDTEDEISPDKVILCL
T1 sequence (Q16531 whole entry partner): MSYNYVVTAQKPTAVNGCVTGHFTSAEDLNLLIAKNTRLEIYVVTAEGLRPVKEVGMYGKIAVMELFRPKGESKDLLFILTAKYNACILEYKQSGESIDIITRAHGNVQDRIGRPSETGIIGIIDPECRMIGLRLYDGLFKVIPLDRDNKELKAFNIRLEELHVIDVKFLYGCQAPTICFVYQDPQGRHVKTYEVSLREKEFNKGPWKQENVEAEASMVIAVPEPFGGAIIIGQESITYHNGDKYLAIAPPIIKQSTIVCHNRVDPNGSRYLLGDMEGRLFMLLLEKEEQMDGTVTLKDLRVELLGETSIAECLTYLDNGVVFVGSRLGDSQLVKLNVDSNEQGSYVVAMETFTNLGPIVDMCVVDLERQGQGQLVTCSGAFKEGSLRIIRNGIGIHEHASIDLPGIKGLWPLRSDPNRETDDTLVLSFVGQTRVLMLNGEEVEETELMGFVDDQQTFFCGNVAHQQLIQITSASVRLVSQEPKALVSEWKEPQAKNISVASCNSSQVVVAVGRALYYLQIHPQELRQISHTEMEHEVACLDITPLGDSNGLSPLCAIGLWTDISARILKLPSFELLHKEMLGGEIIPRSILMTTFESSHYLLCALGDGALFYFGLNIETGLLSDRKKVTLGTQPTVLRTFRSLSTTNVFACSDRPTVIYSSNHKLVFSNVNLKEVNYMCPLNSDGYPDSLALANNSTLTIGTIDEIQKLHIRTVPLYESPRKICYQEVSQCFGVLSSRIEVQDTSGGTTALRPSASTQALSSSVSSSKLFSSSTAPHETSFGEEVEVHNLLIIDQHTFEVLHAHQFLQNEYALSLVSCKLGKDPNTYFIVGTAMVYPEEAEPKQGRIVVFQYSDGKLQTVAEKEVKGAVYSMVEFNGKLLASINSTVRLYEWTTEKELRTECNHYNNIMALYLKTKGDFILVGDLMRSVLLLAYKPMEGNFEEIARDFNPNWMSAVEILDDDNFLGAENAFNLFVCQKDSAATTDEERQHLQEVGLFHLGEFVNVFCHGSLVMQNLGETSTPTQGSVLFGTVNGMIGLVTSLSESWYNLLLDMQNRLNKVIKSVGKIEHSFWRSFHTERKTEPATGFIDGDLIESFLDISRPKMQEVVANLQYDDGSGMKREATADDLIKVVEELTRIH
In short: (§1)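 Cellular target level is measured as luminescence from an 11-residue HiBiT tag fused via a linker to the C-terminus of IKZF1, IKZF2 or SALL4 in stable Flp-In T-REx HEK293 pools. Reporter expression is induced overnight with doxycycline ([…] final), and compounds act for 18-24 h before lytic detection.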

[2] = biological target: T2, IKZF2 (Homo sapiens, UniProt Q96SW2+Q9UKS7); test: HEK293 IKZF2 degradation kinetics (HiBiT, timepoints 1-24 h); parameters: expressed in transfected cells; details: for kinact: HEK293, IKZF2, timepoints 1, 2, 3, 4.5 and 24 hour, read-out: Maximum degradation rate Kinact (converted)
Procedure: The assay technology and principles for evaluating IKZF2 degradation kinetics in HEK293 cells was identical to the HEK293 degradation assay as described above. Additional details are briefly described below.
On Day 1, Cells were grown and induced the same as described above. On Days 2 and 3, compounds for testing were dispensed via ECHO and cells were lifted and plated into compound-spotted assay plates as above. Plates were returned to the 37° C. incubator until addition of Nano-Glo lytic reagent at 1, 2, 3, 4.5, and 24 hour timepoints. At these timepoints, plates were read on Envision reader as above.
All raw data was normalized to DMSO control (final concentration: 0.5%) wells as POC and plotted out as a function of time to generate the degradation rate constant (K) value. The maximum degradation rate (Kinact) was determined by plotting the K value as a function of concentration for each compound tested. Kinact values are shown in Table 25 and the degradation rate plots as well as timecourse of degradation are shown for select compounds in FIG. 1A, FIG. 1B, FIG. 2A and FIG. 2B.
Target sequence in this assay (Q9UKS7 1-500 isoform Q9UKS7-2): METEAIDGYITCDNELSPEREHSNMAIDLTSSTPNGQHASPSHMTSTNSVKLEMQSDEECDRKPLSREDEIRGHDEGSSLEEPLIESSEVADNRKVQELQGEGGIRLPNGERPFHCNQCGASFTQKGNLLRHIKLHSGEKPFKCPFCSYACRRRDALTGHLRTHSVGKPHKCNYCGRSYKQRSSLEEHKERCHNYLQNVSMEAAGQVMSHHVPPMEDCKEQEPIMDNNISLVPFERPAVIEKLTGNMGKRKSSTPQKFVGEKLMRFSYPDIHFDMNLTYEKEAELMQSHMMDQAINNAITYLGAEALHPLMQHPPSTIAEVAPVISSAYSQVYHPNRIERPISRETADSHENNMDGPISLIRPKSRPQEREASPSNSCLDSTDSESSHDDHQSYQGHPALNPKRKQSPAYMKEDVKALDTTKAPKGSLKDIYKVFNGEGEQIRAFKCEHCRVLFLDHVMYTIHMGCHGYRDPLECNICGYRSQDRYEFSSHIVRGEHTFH
Target sequence in this assay (Q96SW2 whole entry): as the sequence (Q96SW2 whole entry) above
Target sequence in this assay (Q16531 whole entry partner): as the sequence (Q16531 whole entry partner) above

[3] = biological target: T2, IKZF2; test: HEK293 HiBiT in vitro degradation of IKZF2; parameters: expressed in transfected cells; details: for Dmax: HEK293, HEK293 HiBiT; for DC50: 18-24 hr incubation, normalized to DMSO control, read-out: IKZF2 EC50
In short: as §1
Target sequence in this assay (Q9UKS7 1-500 isoform Q9UKS7-2): as the sequence (Q9UKS7 1-500 isoform Q9UKS7-2) above
Target sequence in this assay (Q96SW2 whole entry): as the sequence (Q96SW2 whole entry) above
Target sequence in this assay (Q16531 whole entry partner): as the sequence (Q16531 whole entry partner) above

[4] = biological target: T2, IKZF2; test: Human whole blood IKZF2 degradation (flow cytometry, CD4/CD25/Foxp3+ Treg cells); parameters: endogenous in cells; details: 24 hrs incubation, IKZF2 MFI in CD4/CD25/Foxp3+ Treg cells, flow cytometry; for DC50: read-out: IKZF2 EC50
In short: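 Fresh healthy-donor human whole blood stimulated with CD3/CD28 activator and serially diluted compound for 24 hrs at 37° C. IKZF2 MFI in CD4/CD25/Foxp3+ Tregs (IKZF1 MFI in CD4+ T cells) measured by flow cytometry after RBC lysis, fixation, permeabilization. EC50 and Dmax versus DMSO wells.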
Target sequence in this assay (Q9UKS7 whole entry): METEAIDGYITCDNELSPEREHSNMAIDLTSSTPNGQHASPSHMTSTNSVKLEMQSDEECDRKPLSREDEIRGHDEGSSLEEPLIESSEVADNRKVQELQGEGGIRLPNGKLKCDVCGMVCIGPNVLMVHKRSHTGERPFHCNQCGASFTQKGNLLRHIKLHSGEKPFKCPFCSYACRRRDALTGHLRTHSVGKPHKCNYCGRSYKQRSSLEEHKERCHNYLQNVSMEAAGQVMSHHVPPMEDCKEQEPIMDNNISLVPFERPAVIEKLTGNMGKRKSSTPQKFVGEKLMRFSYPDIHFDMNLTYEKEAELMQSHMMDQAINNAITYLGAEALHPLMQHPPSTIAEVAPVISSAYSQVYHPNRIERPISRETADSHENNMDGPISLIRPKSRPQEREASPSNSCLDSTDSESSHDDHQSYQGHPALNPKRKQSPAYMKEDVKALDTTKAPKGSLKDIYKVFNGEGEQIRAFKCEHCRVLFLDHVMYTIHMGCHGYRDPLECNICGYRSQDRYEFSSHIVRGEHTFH
Target sequence in this assay (Q96SW2 whole entry): as the sequence (Q96SW2 whole entry) above
Target sequence in this assay (Q16531 whole entry partner): as the sequence (Q16531 whole entry partner) above

[5] = biological target: T3, SALL4 (Homo sapiens, UniProt Q96SW2+Q9UJQ4); test: HEK293 HiBiT in vitro degradation of SALL4; details: 18-24 hr incubation, normalized to DMSO control, read-out: SALL4 EC50
T3 construct: expressed in transfected cells
T3 sequence (Q9UJQ4 whole entry): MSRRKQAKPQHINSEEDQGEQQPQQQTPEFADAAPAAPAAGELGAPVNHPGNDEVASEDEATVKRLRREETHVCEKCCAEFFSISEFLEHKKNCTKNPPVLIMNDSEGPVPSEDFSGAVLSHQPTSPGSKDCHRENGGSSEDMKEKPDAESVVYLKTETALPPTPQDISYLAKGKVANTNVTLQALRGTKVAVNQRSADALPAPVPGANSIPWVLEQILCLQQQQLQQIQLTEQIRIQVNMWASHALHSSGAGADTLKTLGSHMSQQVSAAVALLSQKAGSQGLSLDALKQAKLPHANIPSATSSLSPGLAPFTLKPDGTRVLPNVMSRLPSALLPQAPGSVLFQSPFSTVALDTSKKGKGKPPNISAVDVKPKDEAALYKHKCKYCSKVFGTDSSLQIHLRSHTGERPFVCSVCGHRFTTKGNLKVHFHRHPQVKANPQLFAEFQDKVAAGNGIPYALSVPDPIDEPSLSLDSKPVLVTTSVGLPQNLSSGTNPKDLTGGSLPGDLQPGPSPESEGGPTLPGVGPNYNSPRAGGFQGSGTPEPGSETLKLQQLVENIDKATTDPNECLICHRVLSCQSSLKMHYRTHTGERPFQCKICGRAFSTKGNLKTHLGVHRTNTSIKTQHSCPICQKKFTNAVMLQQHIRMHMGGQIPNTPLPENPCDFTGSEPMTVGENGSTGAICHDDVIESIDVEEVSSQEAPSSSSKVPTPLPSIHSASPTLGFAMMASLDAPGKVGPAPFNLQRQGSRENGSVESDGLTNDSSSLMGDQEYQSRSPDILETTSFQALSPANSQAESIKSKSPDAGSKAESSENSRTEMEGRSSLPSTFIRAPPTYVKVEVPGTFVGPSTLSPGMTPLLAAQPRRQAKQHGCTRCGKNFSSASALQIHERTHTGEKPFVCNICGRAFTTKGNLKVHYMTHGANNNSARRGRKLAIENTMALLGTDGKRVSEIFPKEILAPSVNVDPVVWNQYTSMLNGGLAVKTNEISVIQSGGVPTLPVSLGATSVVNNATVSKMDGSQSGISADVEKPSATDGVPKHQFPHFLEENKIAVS
T3 sequence (Q96SW2 whole entry): as the sequence (Q96SW2 whole entry) above
T3 sequence (Q16531 whole entry partner): as the sequence (Q16531 whole entry partner) above
Procedure: In vitro degradation of IKZF1, IKZF2, and SALL4 was measured using HiBiT protein tagging and detection technology (Promega).
HiBit technology was used to develop the quantitative assays to measure the cellular IKZFs level by tagging an 11 amino acid HiBit peptides […] to the protein of interest. Reporter plasmids were generated by fusing a linker sequence ([…]) followed by the HiBit tag at the C-terminus of IKZF1, IKZF2, and SALL4. The fusion fragments were subsequently cloned into pcDNA5 pcDNA™5/FRT/TO plasmids (Thermo Fisher, cat #V652020) downstream of the tetracycline operator. The resulting plasmids were co-transfected with pOG44 Flp-Recombinase Expression Vector (Thermo Fisher, cat #V600520) into Flp-In™ T-REx HEK293 line (Thermo Fisher, cat #R78077) and a stable cell pool was selected by adding 100 µg/ml of Hygromycin (Thermo Fisher, cat #10687010). The reporter cell enabled Tet-On inducible reporter expression from a single copy of the integrated gene.
On Day 1, Cells were grown to ˜80% confluency in tissue culture medium (DMEM Glutamax (Gibco10569), 10% Tet free FBS (Takara 631106), and PenStrep Glutamin (Gibco 10378)) in tissue culture flasks. Doxycycline was then added to a final concentration of […] to induce reporter expression at 37° C. overnight.
On Day 2, 125 nL of serially-diluted solution of testing compounds were dispensed into 384-well white solid assay plates via ECHO acoustic liquid handler. Cells were lifted by 0.25% Trypsin (Gibco 25200) then pelleted by centrifugation (Beckman Avanti J-E) at 500×g for 5 min. Cell pellets were resuspended in TC medium at the concentration of 3e5/mL and 25 μL of cell suspension were added into each well of compound-spotted plates. The plates were returned to a 37° C. incubator overnight (18-24 hr).
On Day 3, assay plates were removed from the tissue culture incubator and 25 μL of Nano-Glo lytic detection system (Promega, cat #N3030) was added to each well. Plates were incubated at r.t. for 3 min with shaking, and luminescence was read using an Envision reader (Perkin Elmer).
To assess the IKZF1, IKZF2, and SALL4 degrader potential of exemplified compounds of this disclosure and certain Reference Compounds EC50 and Dmax values were determined for the compounds of Examples 1 to 383 and Reference Compounds A-1, B-1, B-2, B-3, B-4, and C-1 in the HiBiT assays. Asterisks (*) indicate examples for which the data shown represents an average of n≥3.

[6] = biological target: T2, IKZF2; test: Jurkat IKZF2 degradation (flow cytometry); parameters: endogenous in cells; details: Jurkat cells, overnight incubation; for Dmax: maximum degradation at the highest concentration tested
Procedure: (§2) Jurkat cell line (ATCC, Clone E6-1), highly expresses IKZF2 and lends it an appropriate system to screen degradation along with a functional readout. Jurkat cells were grown to 80% confluency in TC medium (RPMI containing glutamax, 10% FBS, 1% NEAA, and 1% Pen/Strep Glutamin in tissue culture flasks.
(§3) The cells were spun down at 400 g for 5 mins and counted. 100 K cells per well were added to a 96-well plate. The compounds were introduced starting at 10 μM and dilutions were made 1:10 for each compound. 100 μL of compound was added to each well for a 12-point titration. The cells were incubated at 37° C. with 5% CO2 overnight.
Cells were stained with appropriate surface and intracellular antibodies and acquired by flow cytometry and analysed for degradation. […]
Target sequence in this assay (Q9UKS7 whole entry): as the sequence (Q9UKS7 whole entry) above
Target sequence in this assay (Q96SW2 whole entry): as the sequence (Q96SW2 whole entry) above
Target sequence in this assay (Q16531 whole entry partner): as the sequence (Q16531 whole entry partner) above

[7] = test system: IL-2 production in Jurkat cells; test: Jurkat IL-2 functional assay (ELISA of supernatants); details: Homo sapiens; for maximal fold induction: Jurkat, top of the curve fit; for EC50: overnight incubation
Procedure: as §2, §3
The following day, supernatants were collected for a functional readout using ELISA. The supernatants were diluted 1:2 and added to appropriate Human IL-2 plates for IL-2 functional readout.
The top of the curve fit for each compound is reported as the IL-2 ‘fold increase over DMSO control.’

[8] = maximum degradation at the highest concentration tested
[9] = ELISA of supernatants, read-out: IL-2 Production Fold increase over DMSO control

| Structure (SMILES) | Dmax [1] [%] | DC50 [1] [nM] | kinact [2] [s⁻¹] | Dmax [3, 8] [%] | DC50 ([3]; HEK293 HiBiT) [nM] | Dmax [4] [%] | DC50 [4] [nM] | DC50 [5] [µM] | IKZF2 Dmax ([3]; HEK293 HiBiT, maximum degradation at the highest concentration tested) [%] | speed of IKZF2 degradation compared with Reference Compounds A-1, B-3, B-4, C-1 ([2]; HEK293) | DC50 ([6]; flow cytometry, normalized to DMSO control, read-out: IKZF2 Degradation EC50) [nM] | Dmax [6] [%] | EC50 ([7]; ELISA of supernatants) [nM] | maximal fold induction [7, 9] | maximal fold induction ([7]; read-out: increase in IL-2 production relative to DMSO control) |
| --- | --- | --- | --- | --- | --- | --- | --- | --- | --- | --- | --- | --- | --- | --- | --- |
| CC(N[C@H]1CCCO[C@@H]1Cc1ccc2c(c1F)CN(C1CCC(=O)NC1=O)C2=O)C1CCOCC1 (single isomer, unassigned) [Example 291] | – | > 1000 | 8.61e-05 | 94 | 10 | 96 | 5 | > 10 | – | – | – | – | – | – | – |
| CC1CC[C@H](NC2CCC(F)(F)CC2)[C@@H](Cc2ccc3c(c2)CN(C2CCC(=O)NC2=O)C3=O)C1 (single isomer, unassigned) [Example 325] | – | > 1000 | 0.000108 | – | 5 | – | – | > 10 | 95 | – | – | – | – | – | – |
| O=C1CCC(N2Cc3cc(C[C@H]4CCCC[C@@H]4NCc4ccccc4)ccc3C2=O)C(=O)N1 (stereo partly drawn) [Example 2, 3-(5-(((1R,2S)-2-(benzylamino)cyclohexyl)methyl)-1-oxoisoindolin-2-yl)piperidine-2,6-dione] | – | > 10000 | 0.000147 | 88 | 18 | – | – | – | – | faster degradation of IKZF2 | – | – | – | – | – |
| CCN[C@H]1CCCC[C@@H]1Cc1ccc2c(c1)CN(C1CCC(=O)NC1=O)C2=O (stereo partly drawn) [Example 35, 3-(5-(((1R,2S)-2-(ethylamino)cyclohexyl)methyl)-1-oxoisoindolin-2-yl)piperidine-2,6-dione] | 31 | 261 | – | 94 | 29 | – | – | – | – | – | 3.9 | 83 | 141 | 1.9 | ≥ 1.9 |
| CCN[C@H]1CCCC[C@@H]1Oc1ccc2c(c1)CN(C1CCC(=O)NC1=O)C2=O (stereo partly drawn) [Example B-2] | – | – | – | 93 | – | – | – | – | – | – | – | 83 | 18 | 1.8 | – |
| O=C1CCC(N2Cc3cc(O[C@H]4CCCC[C@@H]4NCc4ccccc4)ccc3C2=O)C(=O)N1 (stereo partly drawn) [Example B-3] | – | – | 5.56e-05 | 84 | – | – | – | – | – | – | – | – | – | – | – |
| O=C1CCC(N2Cc3cc(N[C@H]4CCCC[C@@H]4NCc4ccccc4)ccc3C2=O)C(=O)N1 (stereo partly drawn) [Example C-1] | – | – | 8.33e-06 | 64 | – | – | – | – | – | – | – | – | – | – | – |

Further lines, with some results ahead:

| Dmax [1] [%] | DC50 [1] [nM] | kinact [2] [s⁻¹] | Dmax [3, 8] [%] | DC50 ([3]; HEK293 HiBiT) [nM] | Dmax [4] [%] | DC50 [4] [nM] | DC50 [5] [µM] | IKZF2 Dmax ([3]; HEK293 HiBiT, maximum degradation at the highest concentration tested) [%] | speed of IKZF2 degradation compared with Reference Compounds A-1, B-3, B-4, C-1 ([2]; HEK293) | DC50 ([6]; flow cytometry, normalized to DMSO control, read-out: IKZF2 Degradation EC50) [nM] | Dmax [6] [%] | EC50 ([7]; ELISA of supernatants) [nM] | Structure (SMILES) | maximal fold induction [7, 9] | maximal fold induction ([7]; read-out: increase in IL-2 production relative to DMSO control) |
| --- | --- | --- | --- | --- | --- | --- | --- | --- | --- | --- | --- | --- | --- | --- | --- |
| 34 | 69 | 0.000133 | 99 | 3 | 93 | 5 | – | – | – | – | – | – | O=C1CCC(N2Cc3c(ccc(C[C@H]4OCCC[C@@H]4NC4CCC(C(F)(F)F)CC4)c3F)C2=O)C(=O)N1 (single isomer, unassigned) [Example 257] | – | – |
| 31 | 632 | 0.000131 | 97 | 5 | 90 | 5 | > 10 | – | – | – | – | – | O=C1CCC(N2Cc3c(ccc(C[C@H]4OCCC[C@@H]4N[C@H]4CC[C@H](F)CC4)c3F)C2=O)C(=O)N1 (single isomer, unassigned) [Example 289] | – | – |
| 53 | 50 | 0.000158 | 98 | 2 | 97 | 4 | > 10 | – | – | – | – | – | O=C1CC[C@@H](N2Cc3cc(C[C@H]4CCCC[C@@H]4NC4CCC(F)(F)CC4)ccc3C2=O)C(=O)N1 (single isomer, unassigned) [Example 329] | – | – |
| – | > 1000 | 0.000111 | 94 | 7 | – | – | – | – | – | – | – | – | O=C1CC[C@@H](N2Cc3c(ccc(C[C@H]4OCCC[C@@H]4N[C@H]4CC[C@H](F)CC4)c3F)C2=O)C(=O)N1 (single isomer, unassigned) [Example 373] | – | – |
| – | > 1000 | 0.000147 | 96 | 3 | 96 | 4 | – | – | – | – | – | – | O=C1CCC(N2Cc3cc(C[C@H]4CCCC[C@@H]4NC4CCCCC4)ccc3C2=O)C(=O)N1 (stereo partly drawn) [Example 53, 3-(5-(((1R,2S)-2-(cyclohexylamino)cyclohexyl)methyl)-1-oxoisoindolin-2-yl)piperidine-2,6-dione] | – | – |
| 39 | 62 | 0.000139 | 98 | 2 | 95 | 3 | – | – | – | – | – | – | O=C1CCC(N2Cc3c(ccc(C[C@H]4CCCC[C@@H]4NC4CCCC4)c3F)C2=O)C(=O)N1 (stereo partly drawn) [Example 87, 3-(5-(((1R,2S)-2-(cyclopentylamino)cyclohexyl)methyl)-4-fluoro-1-oxoisoindolin-2-yl)piperidine-2,6-dione] | – | – |
| 34 | 44 | 0.00015 | 98 | 2 | 89 | 1 | – | – | – | – | – | – | O=C1CCC(N2Cc3c(ccc(C[C@H]4CCCC[C@@H]4NC4CCOCC4)c3F)C2=O)C(=O)N1 (stereo partly drawn) [Example 116] | – | – |
| – | > 1000 | 0.000106 | 96 | 6 | 99 | 8 | – | – | – | – | – | – | O=C1CCC(N2Cc3c(ccc(C[C@H]4OCCC[C@@H]4NC4CCCCC4)c3F)C2=O)C(=O)N1 (stereo partly drawn) [Example 181] | – | – |
